Values of other authors as cited in patent US20130203688A1, “SUGAR PLANT DERIVED BY-PRODUCTS AND METHODS OF PRODUCTION THEREOF” (FÉDÉRATION DES PRODUCTEURS ACÉRI-COLES DU QUÉBEC, priority 2010, published 2013).

Columns and labels:
[1] = test system: α-glucosidase
[2] = test system: human HL-60
[3] = test system: tyrosinase
[4] = test system: TNFα secretion
[5] = test system: synthesis of melanin
[6] = test system: bacteria
[7] = test system: tumor

COc1ccc(C2OC(=O)C(O)(Cc3ccc(OC4OC(C)C(O)C(O)C4O)c(OC)c3)C2CO)cc1OC (centres unmarked) [compound 7]
Properties: α-glucosidase-inhibiting action [1]: α- glucosidase- inhibiting
Properties: human HL-60 proliferation-inhibiting action [2]: human HL-60 proliferation- inhibiting

COc1cc(C2c3c(cc(OC)c(O)c3OC)CC(CO)C2CO)cc(OC)c1O (centres unmarked) [compound 8, Lyoniresinol]
Properties: tyrosinase inhibitory [3]: tyrosinase inhibitory

COc1cc(/C=C/CO)cc(OC)c1O [compound 10, Syringenin]
Properties: TNFα-secretion inhibitor [4]: TNFα- secretion inhibitor

Oc1ccccc1O [compound 11, 1,2-Benzenediol(catechol)]
Properties: tyrosinase inhibitory [3]: inhibit the activity of tyrosinase
Properties: inhibit the synthesis of melanin [5]: inhibit the synthesis of melanin
Properties: antibacterial [6]: Antibacterial

COc1cc(C2Oc3c(OC)cc(CCCO)cc3C2CO)ccc1O (centres unmarked) [compound 15]
Properties: antitumor [7]: Antitumor/
